According to patent publication US8501777B2, “3,5-disubstituted phenyl-piperidines as modulators of dopamine neurotransmission” (NSAB, Filial AF Neurosearch Sweden AB, Sverige, priority 2005, dated 2013):
Where a name gives a salt, the structure may show the parent alone. Read-outs that look alike come from different tables or passages of the source. Values belong to the molecule of their own block, whether it stands above or below them.

Columns and labels:
[1] = system: rats pretreated with d-amphetamine; experiment: Reduction of amphetamine-induced hyper-locomotion; type: in vivo, rat; settings: read-out: ED50 amf (reduction of amphetamine-induced hyper-locomotion, estimated ED50 values)
Experimental: In this model, dopaminergic neurotransmission is increased by systemic administration of d-amphetamine at a dose that is sufficiently high to produce a large increase in locomotor activity. The ability of a compound to antagonize this hyperactivity reflects anti-dopaminergic properties, which are part of the dopaminergic stabiliser profile.
Behavioural activity was measured using eight Digiscan activity monitors (RXYZM (16) TAO, Omnitech Electronics, Columbus, Ohio, USA), connected to an Omnitech Digiscan analyzer and a Apple Macintosh computer equipped with a digital interface board (NB DIO-24, National Instruments, USA). Each activity monitor consisted of a quadratic metal frame (W×L 40×40 cm) equipped with photobeam sensors. During measurements of behavioural activity, a rat was put in a transparent acrylic cage (W×L×H, 40×40×30 cm) which in turn was placed in the activity monitor. Each activity monitor was equipped with three rows of infrared photobeam sensors, each row consisting of 16 sensors. Two rows were placed along the front and the side of the floor of the cage, at a 90° angle, and the third row was placed 10 cm above the floor to measure vertical activity. Photobeam sensors were spaced 2.5 cm apart. Each activity monitor was fitted in an identical sound and light attenuating box containing a weak house light and a fan.
Behavioural data from each activity monitor, representing the position (horizontal centre of gravity and vertical activity) of the animal at each time, were recorded at a sampling frequency of 25 Hz and collected using a custom written LABView™ application. The data from each recording session were stored and analyzed with respect to distance traveled. Each behavioural recording session lasted 60 min, starting approximately 4 min after the injection of test compound. […] The results are presented as counts/60 minutes, or counts/30 minutes, in arbitrary length units. Statistical comparisons were carried out using student's t-test vs the control group.
For most compounds, the evaluation is based on 16 amphetamine pre-treated animals over the dose range 0, 11, 33 and 100 μmol/kg s.c. in one single experiment, with complementary doses in separate experiments. Calculations are based on distance during the last 45 minutes of one hour of measurement. […] To estimate confidence levels for the parameters, the fit is repeated 100 times with a random evenly distributed squared weight (0 to 1) for every measurement value.

hERG ion channel = hERG ion channel (Homo sapiens, UniProt Q12809); experiment: hERG affinity by Rapid ICE automated patch-clamp (HEK293 cells stably transfected with HERG cDNA)
Sequence of hERG ion channel (Q12809 whole entry): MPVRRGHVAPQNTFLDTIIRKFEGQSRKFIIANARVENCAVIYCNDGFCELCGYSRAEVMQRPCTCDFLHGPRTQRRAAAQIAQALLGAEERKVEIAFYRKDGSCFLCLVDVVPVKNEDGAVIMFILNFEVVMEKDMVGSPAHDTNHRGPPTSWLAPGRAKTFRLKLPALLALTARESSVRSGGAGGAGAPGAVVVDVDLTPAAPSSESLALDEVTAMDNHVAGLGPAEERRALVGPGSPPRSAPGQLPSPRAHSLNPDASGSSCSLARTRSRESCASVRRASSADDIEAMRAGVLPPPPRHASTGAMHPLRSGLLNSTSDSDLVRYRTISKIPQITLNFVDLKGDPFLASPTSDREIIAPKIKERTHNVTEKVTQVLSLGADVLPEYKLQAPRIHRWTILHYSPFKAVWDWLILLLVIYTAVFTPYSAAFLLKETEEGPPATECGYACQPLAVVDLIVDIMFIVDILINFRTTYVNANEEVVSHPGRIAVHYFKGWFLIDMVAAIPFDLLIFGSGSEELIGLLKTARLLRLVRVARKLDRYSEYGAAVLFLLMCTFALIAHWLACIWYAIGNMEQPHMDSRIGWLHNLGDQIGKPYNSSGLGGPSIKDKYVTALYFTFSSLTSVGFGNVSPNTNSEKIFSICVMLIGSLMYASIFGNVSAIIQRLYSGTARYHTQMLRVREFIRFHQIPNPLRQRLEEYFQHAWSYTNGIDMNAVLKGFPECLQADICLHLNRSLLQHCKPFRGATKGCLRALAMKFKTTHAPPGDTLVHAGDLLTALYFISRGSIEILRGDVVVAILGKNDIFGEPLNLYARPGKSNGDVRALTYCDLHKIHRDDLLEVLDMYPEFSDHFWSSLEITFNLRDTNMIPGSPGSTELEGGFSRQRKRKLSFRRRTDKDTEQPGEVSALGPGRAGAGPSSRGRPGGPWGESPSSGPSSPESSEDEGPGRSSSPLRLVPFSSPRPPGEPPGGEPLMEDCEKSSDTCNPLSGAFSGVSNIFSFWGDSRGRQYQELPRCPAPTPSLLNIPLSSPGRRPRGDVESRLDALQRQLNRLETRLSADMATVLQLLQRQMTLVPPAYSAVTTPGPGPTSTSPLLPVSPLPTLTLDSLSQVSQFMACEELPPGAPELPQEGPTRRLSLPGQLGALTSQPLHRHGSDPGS
Description: Rapid ICE™ (Rapid Ion Channel Electrophysiology) is an automated patch-clamp assay utilising the PatchXpress 7000A system (Axon Instruments). Rapid ICE™ assesses the effect of test substances on HERG tail current recorded from HEK293 cells stably transfected with HERG cDNA.
HERG.T.HEK (HEK293 cells stably transfected with HERG cDNA) were obtained from the University of Wisconsin. These cells are held in cryogenic storage at Quintiles and also maintained in culture. The cells are continuously maintained in and passaged using minimum essential medium supplemented with 10% foetal bovine serum, 1% non-essential amino acids, 1% sodium pyruvate and 0.4 mg/ml geneticin. For use in Rapid ICE™ studies, 4 ml of the cells are placed into falcon tubes at a density of 2.5×10^5/ml. The falcon tubes are stored in a humidified, gassed (5% CO2) incubator at 37° C. and cells are used within 2.5 h of storage. Just prior to experimentation, these cells are centrifuged at 1000 rpm for 1 min, the supernatant decanted and the cells re-suspended in 150 μl of bath solution in a 1.5 ml eppendorf tube.
The PatchXpress system is primed with appropriate extracellular (bath) and intracellular (pipette) solutions prior to conducting a study. A 16 well sealchip (Sealchip16, Aviva Bio-sciences Corp) is loaded into the system and primed before preparing cells in the bath solution suspension. The cell eppendorf is placed into the designated position and the procedure commences with the trituration and dispersion of cells into each well (recording chamber) of the sealchip. The PatchXpress system follows the general principles of conventional whole-cell patch-clamping: a high resistance seal is formed between the patch electrode and an individual cell, the membrane across the electrode tip is ruptured and the whole-cell patch-clamp configuration is established. If the quality of the cell is judged to be poor, the experiment may be terminated at this point and if necessary, the process repeated on another sealchip.
Once a stable patch has been achieved, recording commences in voltage-clamp mode, with the cell initially clamped at −80 mV. The standard voltage profile is as follows: step from −80 mV to −50 mV for 200 ms, +20 mV for 4.8 s, step to −50 mV for 5 s then step to the holding potential of −80 mV. The step from −80 mV to the test command (+20 mV) results in an outward current (i.e. current flows out of the cell) and the step from the test command (+20 mV) to −50 mV results in the tail current (the tail current represents deactivation of the current over time). […] Each value represents the average current recorded from 4 sequential voltage pulses. For each cell the effects of the test substance is determined by calculating the residual current (% control) compared with vehicle pre-treatment. […]

[2] = system: 3,4 dihydroxyphenylacetic acid (DOPAC) in striatum; experiment: In vivo neurochemistry: DOPAC in striatum; settings: rat, 100 μmol/kg s.c.
Description: After the behavioural activity sessions, the rats were decapitated and their brains rapidly taken out and put on an ice-cold petri-dish. The limbic forebrain, the striatum, the frontal cortex and the remaining hemispheral parts of each rat were dissected and frozen. Each brain part was subsequently analyzed with respect to its content of monoamines and their metabolites.
The monoamine transmitter substances (NA (noradrenaline), DA (dopamine), 5-HT (serotonin)) as well as their amine (NM (normethanephrine), 3-MT (3-methoxytyramine)) and acid (DOPAC (3,4-dihydroxyphenylacetic acid), 5-HIAA (5-hydroxyindoleacetic acid), HVA (homovanillic acid)) metabolites are quantified in brain tissue homogenates by HPLC separations and electrochemical detection.
The analytical method is based on two chromatographic separations dedicated for amines or acids. Two chromatographic systems share a common auto injector with a 10-port valve and two sample loops for simultaneous injection on the two systems. Both systems are equipped with a reverse phase column (Luna C18(2), dp 3μ, 50*2 mm i.d., Phenomenex) and electrochemical detection is accomplished at two potentials on glassy carbon electrodes (MF-1000, Bioanalytical Systems, Inc.). Via a T-connection the column effluent is passed to the detection cell or to waste. […]

MK-801 pre-treated rats = experiment: Locomotor activity in MK-801 pre-treated rats; type: in vivo, rat; settings: MK-801 0.7 mg/kg i.p. 90 min before test compound, recorded 30-60 min after administration
Experimental: Another animal model of antipsychotic activity is based on administration of the glutamate antagonist MK-801. Glutamate antagonists (i.e. NMDA antagonists), can induce psychoses in man (see Psychopharmacology, 4th Generation of progress Chapter 101, p. 1205 and 1207) and induce behavioural aberrations in animals. […] In this study the NMDA antagonist MK-801 (0.7 mg/kg i.p.) was used to create a hypoglutamatergic state where the rats display abnormal, hyperactive behaviour. Compounds in the present invention dose-dependently reverse the behavioural aberration induced by MK-801 (see Table 2).
Behavioural activity was measured using eight Digiscan activity monitors (RXYZM (16) TAO, Omnitech Electronics, Columbus, Ohio, USA), connected to an Omnitech Digiscan analyzer and a Apple Macintosh computer equipped with a digital interface board (NB DIO-24, National Instruments, USA). Each activity monitor consisted of a quadratic metal frame (W×L 40×40 cm) equipped with photobeam sensors. […]
Behavioural data from each activity monitor, representing the position (horizontal centre of gravity and vertical activity) of the animal at each time, were recorded at a sampling frequency of 25 Hz and collected using a custom written LABView™ application. The data from each recording session were stored and analyzed with respect to distance traveled. […]

[3] = Metabolic stability in rat liver microsomes; type: in vitro ADME; settings: 15 min incubation at 37° C., NADPH
Experimental: Rat liver microsomes were isolated as described by Forlin (1980) Effects of Clophen A50, 3-methylcholantrene, pregnenolone-16aq-carbonitrile and Phenobarbital on the hepatic microsomal cytochrome P-450-dependent monooxygenaser system in rainbow trout, salmo garirdneri, of different age and sex. Tox Appl Pharm. […]
1 μL of, 0.2 or 1 mM test substance diluted in water and 10 μL 20 mg/mL rat liver micro-some were mixed with 149 μL 37° C. buffer 1 and the reaction was started by addition of 40 μL 4.1 mg/mL NADPH. […] The test compound was analysed using HPLC-MS (Hewlett-Packard 1100MSD Series) with a Zorbax SB-C18 column (2.1*150 mm, 5 μm) using 0.03% formic acid and acetonitrile as mobile phase (gradient) or a Zorbax Eclipse XDB-C18 (3*75 mm, 3.5 μm) using 0.03% acetic acid and acetonitrile as mobile phase (gradient). The 15 min turnover was calculated as the fraction of test compound eliminated after 15 minutes, expressed in percent of 0 min levels, ie 100*[conc test compound at 0 min−concentration at 15 min]/conc at 0 min.

[4] = Oral bioavailability in rat; type: in vivo; settings: plasma, oral 12.5 μmol/kg vs i.v. 5 μmol/kg, AUC ratio
Experimental: Experiments are performed 24 hours after implantation of arterial and venous catheters. Test compound is administered orally at 12.5 μmol/kg or intravenously at 5 μmol/kg using the venous catheters, n=3 per group. Arterial blood samples are then taken during […] at 0, 3, 9, 27, 60, 120, 180, 240, 300 and, 360 minutes after administration of the test compound. The oral bioavailability was calculated as the ratio of the AUC (Area under curve) obtained after oral administration over the AUC obtained after intravenous administration for each rat. The parameter AUC was calculated according to the following: AUC: the area under the plasma concentration versus time curve from time zero to the last concentration measured (Clast), calculated by the log/linear trapezoidal method.
The levels of test compound are measured by means of liquid chromatography-mass spectrometry (LC-MS). (Hewlett-Packard 1100MSD Series). The module include a quaternary pump system, vacuum degasser, thermostatted autosampler, thermostatted column compartment, diode array detector and API-ES spray chamber. […]
Extractions procedure: Plasma samples (0.25-0.5 ml) were diluted with water to 1 ml, and 60 pmol (100 μl) internal standard (−)-OSU6241 was added. […] The selective ion (MH^+) was monitored for each Example, and MH^+ 296 for (−)-OSU6241 ((3-[3-(ethylsulfonyl)phenyl]-1-propylpiperidine). […]

[5] = rat, test compound s.c., d-amphetamine 1.5 mg/kg i.p., distance during last 45 min of one hour

Structure (SMILES): CCCN1CCC(c2cc(F)cc(C(F)(F)F)c2)CC1 [reference compound]
ED50 [1, 5]: 14 µmol/kg | IC50 (hERG ion channel): 1.5 µM

Structure (SMILES): CCCN1CCC(c2ccc(Cl)c(C(F)(F)F)c2)CC1 [reference compound]
ED50 ([1]; Rattus norvegicus): 34 µmol/kg | IC50 (hERG ion channel): 0.61 µM

Structure (SMILES): CCCN1CCC(c2cccc(S(C)(=O)=O)c2)CC1
ED50 ([1]; Rattus norvegicus): 52 µmol/kg

Structure (SMILES): CCCN1CCC(c2cc(F)cc(S(C)(=O)=O)c2)CC1 [Example 1, 4-[3-fluoro-5-(methylsulfonyl)phenyl]-1-propylpiperidine]
DOPAC in striatum [2]: 318 % of control | Locomotor activity, MK + example 100 μmol/kg (MK-801 pre-treated rats): 20858 ± 4638 (P = 0.01) counts/30 min ± SEM | ED50 [1, 5]: 12 µmol/kg | Turnover at 15 minutes in rat liver microsomes [3]: 5% | IC50 (hERG ion channel): 9.8 µM

Second part, led by results:

melting point: 176 to 178 °C
Structure (SMILES): CCN1CCC(c2cc(F)cc(S(C)(=O)=O)c2)CC1 (as salt: hydrochloric acid salt) [Example 2, 1-ethyl-4-[3-fluoro-5-(methylsulfonyl)phenyl]piperidine]

melting point: 187 to 189 °C
Structure (SMILES): CCCN1CCC(c2cc(F)cc(S(C)(=O)=O)c2)CC1 (as salt: hydrochloric acid salt) [Example 1, 4-[3-fluoro-5-(methylsulfonyl)phenyl]-1-propylpiperidine]

bioavailability [4]: ~85% | Turnover at 15 minutes in rat liver microsomes [3]: 0%
Structure (SMILES): CCN1CCC(c2cc(F)cc(S(C)(=O)=O)c2)CC1 [Example 2, 1-ethyl-4-[3-fluoro-5-(methylsulfonyl)phenyl]piperidine]
DOPAC in striatum [2]: 292 % of control | Locomotor activity, MK + example 100 μmol/kg (MK-801 pre-treated rats): 24012 ± 5511 (P = 0.03) counts/30 min ± SEM | ED50 [1, 5]: 28 µmol/kg | IC50 (hERG ion channel): 21.7 µM
